# Experimental data as given in publication PMC9011347, “Small-Molecule Inhibitors Targeting Lipolysis in Human Adipocytes” (Journal of the American Chemical Society, 2022).
# Biological target: T1, ATGL and G0S2 (Homo sapiens, UniProt Q96AD5)
# T1 construct: expressed in transfected cells; host or cells: HEK293 cells; NG-497 added to the lysates
# Assay: Co-immunoprecipitation of ATGL and G0S2
# Assay type: binding
# Conditions: NG-497 40 µM, HEK293 lysates, FLAG-ATGL and His-G0S2
# Protocol: Fig. S2: Effect of NG-497 on the protein-protein interaction of ATGL and G0S2 investigated by co-immunoprecipitation.
# HEK293 cells were co-transfected with FLAG-tagged ATGL and His-tagged G0S2 (both human). As controls, FLAG-tagged ATGL was co-expressed with His-LacZ, and His-tagged G0S2 with empty FLAG-vector (e-FLAG). (a) Protein expression of the indicated plasmid combinations was confirmed using anti-Xpress and anti-Flag antibodies. (b) Cell lysates were incubated with anti-FLAG M2 affinity beads in the presence or absence of NG-497 (40 µM). After extensive washing, bound proteins were eluted by boiling in SDS-containing sample buffer and subjected to Western blotting analysis. His-G0S2 was exclusively […]
# Data are representative for two
# (1 picture or pasted object on this page, not shown here)
# Co-immunoprecipitation. HEK293 cells were co-transfected with the indicated plasmid combinations using Metafectene (#T020-5.0; Biontex, Germany) according to the manufacturer’s instructions. […]
# Analysis of toxicity in HepG2 hepatocytes. […] Release of LDH into the medium was analyzed using the Cytotoxicity Detection Kit PLUS (LDH) (MilliporeSigma) according to the manufacturer’s instructions. Cytotoxicity was calculated as relative LDH release as compared to fully lysed cells. […]
# T1 sequence (Q96AD5 whole entry): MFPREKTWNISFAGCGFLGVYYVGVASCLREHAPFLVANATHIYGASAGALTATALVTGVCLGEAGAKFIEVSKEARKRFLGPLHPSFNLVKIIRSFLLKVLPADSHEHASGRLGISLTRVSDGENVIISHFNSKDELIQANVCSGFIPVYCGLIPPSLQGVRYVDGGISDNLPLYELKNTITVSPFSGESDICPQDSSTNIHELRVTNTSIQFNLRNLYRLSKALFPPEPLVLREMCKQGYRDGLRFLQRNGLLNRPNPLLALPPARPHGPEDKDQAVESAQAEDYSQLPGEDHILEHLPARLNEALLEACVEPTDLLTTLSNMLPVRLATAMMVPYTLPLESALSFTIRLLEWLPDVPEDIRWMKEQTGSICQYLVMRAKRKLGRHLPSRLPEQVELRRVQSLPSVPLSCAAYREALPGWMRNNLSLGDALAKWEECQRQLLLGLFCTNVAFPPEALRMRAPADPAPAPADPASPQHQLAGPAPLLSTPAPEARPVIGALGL
# T1 sequence (P27469 whole entry partner): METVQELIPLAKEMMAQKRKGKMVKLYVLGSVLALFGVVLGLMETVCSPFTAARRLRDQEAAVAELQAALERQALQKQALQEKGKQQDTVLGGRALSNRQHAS
structure (smiles),measurement,value
CCOc1ccc(-c2cc(OC)cc(C(=O)OC(C)C)n2)cc1 [NG-497],G0S2 binding to ATGL (co-immunoprecipitation),increased G0S2 binding
